Results from US12630548B2, “Azetidine derivatives for the treatment of integrin associated diseases” (The University of Nottingham, priority 2020, dated 2026).
Where two headings read alike, the source gives them in different places.

How the values were obtained:
[1] = molecular target: ανβ6 (Homo sapiens, UniProt P06756+P18564); assay: Cell adhesion assay, αvβ6 integrin; assay type: cell-based
Experimental: The assays were performed as described in the literature (P. A. Procopiou, N. A. Anderson, J. Barrett, T. N. Barrett, M. H. J. Crawford, B. J. Fallon, A. P. Hancock, J. Le, S. Lemma, R. P. Marshall, J. Morrell, J. M. Pritchard, J. E. Rowedder, P. Saklatvala, R. J. Slack, S. L. Sollis, C. J. Suckling, L. R. Thorp, G. Vitulli, et al., J. Med. Chem. 2018, 61, 8417-8443; S. B. Ludbrook, S. T. Barry, C. J. Delves, C. M. T. Horgan, Biochem. J. 2003, 369, 311-318).

[2] = ChromlogD (lipophilicity); assay type: physicochemical; settings: pH 7.4
From the text: ChromlogD is a measure of lipophilicity of a compound (R. J. Young et al. Drug Discovery Today 2011, […]). Lipophilicity is a key physicochemical property that plays a crucial role in determining ADMET (absorption, distribution, metabolism, excretion, and toxicity) properties and the overall suitability of drug candidates.

[3] = molecular target: hERG (Homo sapiens, UniProt Q12809); assay: hERG Q-patch; assay type: cell-based; settings: read-out: hERG Q-patch (pIC50) (converted)
Chain of hERG (Q12809 whole entry): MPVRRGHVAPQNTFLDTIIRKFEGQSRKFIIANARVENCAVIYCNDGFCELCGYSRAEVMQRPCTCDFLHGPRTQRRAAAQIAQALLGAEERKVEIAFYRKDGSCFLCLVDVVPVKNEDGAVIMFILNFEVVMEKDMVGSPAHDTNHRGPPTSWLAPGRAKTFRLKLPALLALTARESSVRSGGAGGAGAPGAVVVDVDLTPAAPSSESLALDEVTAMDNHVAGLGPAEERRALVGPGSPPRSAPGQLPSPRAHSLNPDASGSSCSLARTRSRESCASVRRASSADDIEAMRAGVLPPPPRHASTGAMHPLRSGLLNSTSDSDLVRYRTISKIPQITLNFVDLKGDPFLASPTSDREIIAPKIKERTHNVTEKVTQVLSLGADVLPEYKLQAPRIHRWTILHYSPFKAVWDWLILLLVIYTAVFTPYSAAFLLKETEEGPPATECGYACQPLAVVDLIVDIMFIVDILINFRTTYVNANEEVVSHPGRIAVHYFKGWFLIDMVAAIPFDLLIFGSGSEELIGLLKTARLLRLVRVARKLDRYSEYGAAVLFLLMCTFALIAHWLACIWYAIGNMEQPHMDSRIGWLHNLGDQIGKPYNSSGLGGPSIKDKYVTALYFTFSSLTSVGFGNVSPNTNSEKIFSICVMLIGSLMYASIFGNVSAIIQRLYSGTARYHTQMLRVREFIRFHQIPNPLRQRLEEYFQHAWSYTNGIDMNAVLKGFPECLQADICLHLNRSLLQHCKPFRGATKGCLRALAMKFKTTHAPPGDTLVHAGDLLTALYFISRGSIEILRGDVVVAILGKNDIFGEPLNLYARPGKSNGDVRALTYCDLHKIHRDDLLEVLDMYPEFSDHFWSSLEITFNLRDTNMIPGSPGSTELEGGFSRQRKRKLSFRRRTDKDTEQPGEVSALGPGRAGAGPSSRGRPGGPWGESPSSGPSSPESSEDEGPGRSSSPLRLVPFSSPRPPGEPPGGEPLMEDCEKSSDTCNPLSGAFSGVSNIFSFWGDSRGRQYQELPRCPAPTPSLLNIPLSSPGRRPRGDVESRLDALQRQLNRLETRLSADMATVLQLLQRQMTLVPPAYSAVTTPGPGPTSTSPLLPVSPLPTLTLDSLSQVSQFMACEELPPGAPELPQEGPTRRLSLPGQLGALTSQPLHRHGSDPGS
From the text: The human ether-a-go-go related gene (hERG) encodes the inward rectifying voltage gated potassium channel in the heart (IKr) that is involved in cardiac repolarisation. Inhibition of the hERG current causes QT interval prolongation resulting in potentially fatal ventricular tachyarrhythmia called Torsade de Pointes. A number of drugs have been withdrawn from late stage clinical trials due to these cardiotoxic effects, therefore it is important to identify inhibitors early in drug discovery (W. Haverkamp et al. Eur Heart J., 2000, 21(15), 1216). A low potency in this screen is advantageous for compound development.

[4] = cell adhesion data, read-out: ανβ6 IC50

Chain of ανβ6 (P06756 31-889 limits assumed): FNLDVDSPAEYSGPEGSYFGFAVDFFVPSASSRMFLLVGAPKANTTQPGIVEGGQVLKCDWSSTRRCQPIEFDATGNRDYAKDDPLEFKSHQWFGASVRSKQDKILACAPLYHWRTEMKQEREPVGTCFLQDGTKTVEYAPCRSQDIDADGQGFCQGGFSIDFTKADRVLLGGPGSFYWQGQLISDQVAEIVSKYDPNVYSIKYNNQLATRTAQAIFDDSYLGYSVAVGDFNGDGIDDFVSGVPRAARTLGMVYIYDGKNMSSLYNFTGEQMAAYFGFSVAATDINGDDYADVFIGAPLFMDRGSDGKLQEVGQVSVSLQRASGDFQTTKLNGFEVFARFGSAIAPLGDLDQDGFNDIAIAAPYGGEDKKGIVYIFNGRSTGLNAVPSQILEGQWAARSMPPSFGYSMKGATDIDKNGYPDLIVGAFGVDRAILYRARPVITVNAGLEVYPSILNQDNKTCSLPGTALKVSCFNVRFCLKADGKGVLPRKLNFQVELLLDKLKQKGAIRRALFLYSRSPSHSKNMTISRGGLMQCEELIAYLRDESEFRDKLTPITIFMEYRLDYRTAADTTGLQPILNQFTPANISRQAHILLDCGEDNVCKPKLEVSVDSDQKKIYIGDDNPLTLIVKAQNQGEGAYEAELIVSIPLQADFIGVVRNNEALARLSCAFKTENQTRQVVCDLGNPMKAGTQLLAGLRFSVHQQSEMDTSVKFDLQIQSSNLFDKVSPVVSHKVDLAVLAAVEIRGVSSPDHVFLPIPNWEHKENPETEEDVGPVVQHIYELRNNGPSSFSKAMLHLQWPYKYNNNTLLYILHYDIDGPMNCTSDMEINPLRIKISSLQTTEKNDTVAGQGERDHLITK
Chain of ανβ6 (P06756 891-1048 limits assumed): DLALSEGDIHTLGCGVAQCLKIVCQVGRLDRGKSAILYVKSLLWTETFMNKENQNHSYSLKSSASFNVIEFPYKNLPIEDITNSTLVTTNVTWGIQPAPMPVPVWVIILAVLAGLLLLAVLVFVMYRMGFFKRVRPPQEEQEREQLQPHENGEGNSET
Chain of ανβ6 (P18564 22-788): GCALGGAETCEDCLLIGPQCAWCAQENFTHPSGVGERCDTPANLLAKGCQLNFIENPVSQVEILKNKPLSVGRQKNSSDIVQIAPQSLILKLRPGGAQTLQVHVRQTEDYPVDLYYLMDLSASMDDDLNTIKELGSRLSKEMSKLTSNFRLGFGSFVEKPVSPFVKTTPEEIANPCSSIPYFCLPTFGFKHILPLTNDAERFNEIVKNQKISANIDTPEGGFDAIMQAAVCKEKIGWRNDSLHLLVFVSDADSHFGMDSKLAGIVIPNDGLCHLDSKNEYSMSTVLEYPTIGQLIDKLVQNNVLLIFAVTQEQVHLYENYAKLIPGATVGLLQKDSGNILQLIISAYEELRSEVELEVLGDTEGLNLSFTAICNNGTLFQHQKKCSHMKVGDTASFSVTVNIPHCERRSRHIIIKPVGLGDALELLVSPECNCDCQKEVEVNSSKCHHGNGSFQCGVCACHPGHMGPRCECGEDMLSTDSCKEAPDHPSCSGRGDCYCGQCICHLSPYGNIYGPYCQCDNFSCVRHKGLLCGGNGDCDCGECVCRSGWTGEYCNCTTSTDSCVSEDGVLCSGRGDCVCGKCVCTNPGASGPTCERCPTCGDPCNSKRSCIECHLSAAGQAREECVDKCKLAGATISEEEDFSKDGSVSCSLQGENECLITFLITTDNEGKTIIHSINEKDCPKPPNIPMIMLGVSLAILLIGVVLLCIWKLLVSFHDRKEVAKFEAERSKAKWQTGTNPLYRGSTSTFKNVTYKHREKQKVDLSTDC

| Structure (SMILES) | IC50 [1, 4] | other results |
| --- | --- | --- |
| Cc1cccc(S(=O)(=O)N2CC(C(=O)N[C@@H](CNC(=O)CCCCc3ccc4c(n3)NCCC4)C(=O)O)C2)c1 [Example 6A] | < 250 nM | IC50 ([1]; comparison table, Example 6A, read-out: αvβ6 (pIC50) (converted)): 5.01 nM; chromatographic logD [2]: 2.27; IC50 [3]: > 31600 nM |
| O=C(CCCCc1ccc2c(n1)NCCC2)NC[C@H](NC(=O)C1CN(S(=O)(=O)c2cccc(C(F)F)c2)C1)C(=O)O [Example 29, (S)-2-(1-(3-(Difluoromethyl)benzenesulfonyl)azetidine-3-carboxamido)-3-(5-(5,6,7,8-tetrahydro-1,8-naphthyridin-2-yl)pentanamido)propanoic acid] | < 250 nM |  |
| O=C(CCCCc1ccc2c(n1)NCCC2)NC[C@H](NC(=O)C1CN(S(=O)(=O)c2cccc(C3CC3)c2)C1)C(=O)O [Example 30, (S)-2-(1-(3-Cyclopropylbenzenesulfonyl)azetidine-3-carboxamido)-3-(5-(5,6,7,8-tetrahydro-1,8-naphthyridin-2-yl)pentanamido)propanoic acid] | < 250 nM |  |
| O=C(CCCCc1ccc2c(n1)NCCC2)NC[C@H](NC(=O)C1CN(S(=O)(=O)c2ccc3c(c2)CCC3)C1)C(=O)O [Example 31, (S)-2-(1-((2,3-Dihydro-1H-inden-5-yl)sulfonyl)azetidine-3-carboxamido)-3-(5-(5,6,7,8-tetrahydro-1,8-naphthyridin-2-yl)pentanamido)propanoic acid] | < 250 nM |  |
| COc1ccc(S(=O)(=O)N2CC(C(=O)N[C@@H](CNC(=O)CCCCc3ccc4c(n3)NCCC4)C(=O)O)C2)cc1OC [Example 32, (S)-2-(1-(3,4-Dimethoxybenzenesulfonyl)azetidine-3-carboxamido)-3-(5-(5,6,7,8-tetrahydro-1,8-naphthyridin-2-yl)pentanamido)propanoic acid] | < 250 nM |  |
| O=C(CCCCc1ccc2c(n1)NCCC2)NC[C@H](NC(=O)C1CN(S(=O)(=O)c2cccc(C3=CCOCC3)c2)C1)C(=O)O [Example 33] | < 250 nM |  |
| O=C(CCCCc1ccc2c(n1)NCCC2)NC[C@H](NC(=O)C1CN(S(=O)(=O)c2cccc(N3CCNCC3)c2)C1)C(=O)O [Example 34, (S)-2-(1-(3-(Piperazin-1-yl)benzenesulfonyl)azetidine-3-carboxamido)-3-(5-(5,6,7,8-tetrahydro-1,8-naphthyridin-2-yl)pentanamido)propanoic acid] | < 250 nM |  |
| CN(C)CCOc1cccc(S(=O)(=O)N2CC(C(=O)N[C@@H](CNC(=O)CCCCc3ccc4c(n3)NCCC4)C(=O)O)C2)c1 [Example 35] | < 250 nM |  |
| Cc1cccc(S(=O)(=O)N2CC(C(=O)N[C@@H](CC(=O)NCCCCc3ccc4c(n3)NCCC4)C(=O)O)C2)c1 [Example 36, N4-(4-(5,6,7,8-Tetrahydro-1,8-naphthyridin-2-yl)butyl)-N2-(1-(3-methylbenzenesulfonyl)azetidine-3-carbonyl)-L-asparagine] | < 250 nM |  |
| Cc1cccc(S(=O)(=O)N2CC(C(=O)N[C@@H](CCN(C)CCCCc3ccc4c(n3)NCCC4)C(=O)O)C2)c1 [Example 37, (S)-4-(Methyl(4-(5,6,7,8-tetrahydro-1,8-naphthyridin-2-yl)butyl)amino)-2-(1-(3-methylbenzenesulfonyl)azetidine-3-carboxamido)butanoic acid] | < 250 nM |  |
| CN(CCCCc1ccc2c(n1)NCCC2)CC[C@H](NC(=O)C1CN(S(=O)(=O)c2ccccc2)C1)C(=O)O [Example 38, (S)-4-(Methyl(4-(5,6,7,8-tetrahydro-1,8-naphthyridin-2-yl)butyl)amino)-2-(1-(phenylsulfonyl)azetidine-3-carboxamido)butanoic acid] | < 250 nM |  |
| CN(CCCCc1ccc2c(n1)NCCC2)CC[C@H](NC(=O)C1CN(S(=O)(=O)c2cccc(Cl)c2)C1)C(=O)O [Example 39, (S)-2-(1-((3-chlorophenyl)sulfonyl)azetidine-3-carboxamido)-4-(methyl(4-(5,6,7,8-tetrahydro-1,8-naphthyridin-2-yl)butyl)amino)butanoic acid] | < 250 nM |  |
| Cc1ccc(S(=O)(=O)N2CC(C(=O)N[C@@H](CCN(C)CCCCc3ccc4c(n3)NCCC4)C(=O)O)C2)cc1 [Example 40, (S)-4-(Methyl(4-(5,6,7,8-tetrahydro-1,8-naphthyridin-2-yl)butyl)amino)-2-(4-methylbenzenesulfonylazetidine-3-carboxamido)butanoic acid] | < 250 nM |  |
